# Assay results from PubChem BioAssay (NCI).
# Values joined by “and” are separate entries in the source; they are usually repeats but may differ in a detail not shown here. Equal values may be shown once.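 Cells were grown in 96-well plates and exposed to each compound for 48 hours at five concentrations; endpoints were interpolated linearly between bracketing concentrations, or set to the highest concentration if not reached. Here, GI50 denotes the concentration required for 50% inhibition of growth. At the TGI there is no net growth.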
# Experiments:
# Assay in all cases: DTP human tumour cell line panel, 48 h
# OVCAR-5 ovarian = test system: OVCAR-5 ovarian
# NCI-H226 lung = test system: NCI-H226 lung
# SW-620 colon = test system: SW-620 colon
# HOP-62 NSCLC = test system: HOP-62 NSCLC
# NCI-H522 lung = test system: NCI-H522 lung
# HOP-92 NSCLC = test system: HOP-92 NSCLC
# BT-549 breast = test system: BT-549 breast
# U251 CNS = test system: U251 CNS
# UO-31 renal = test system: UO-31 renal
# SF-268 CNS = test system: SF-268 CNS
SMILES,TGI (OVCAR-5 ovarian),TGI (NCI-H226 lung),TGI (SW-620 colon),TGI (HOP-62 NSCLC),TGI (NCI-H522 lung),TGI (HOP-92 NSCLC),TGI (BT-549 breast),TGI (U251 CNS),TGI (UO-31 renal),TGI (SF-268 CNS),GI50 (OVCAR-5 ovarian) [µM],GI50 (NCI-H226 lung),GI50 (SW-620 colon),GI50 (HOP-62 NSCLC),GI50 (NCI-H522 lung),GI50 (HOP-92 NSCLC),GI50 (BT-549 breast) [µM],GI50 (U251 CNS),GI50 (UO-31 renal),GI50 (SF-268 CNS)
COc1ccc2nc3cc(Cl)ccc3c(Nc3ccccc3-c3ccccc3Nc3c4ccc(Cl)cc4nc4ccc(OC)cc34)c2c1,> 85.9 µM,> 73.4 µM,> 68.2 µM,> 94.9 µM,32 µM,> 82.5 µM,42.2 µM,> 93.5 µM,> 100 µM,> 72.7 µM,,,,,,,,,,
O=C(O)CCC(O)=C1S(=O)(=O)OCCOS1(=O)=O,> 100 µM,> 100 µM,> 100 µM,> 100 µM,> 100 µM,> 100 µM,> 100 µM,> 100 µM,> 100 µM,> 100 µM,,,,,,,,,,
OCc1c(-c2cccs2)oc(-c2cccs2)c1CO,> 100 µM,> 100 µM,> 100 µM,> 100 µM,> 100 µM,> 100 µM,> 100 µM,> 100 µM,> 100 µM,> 100 µM,69.2,50.3 µM,63.6 µM,> 100 µM,39.1 µM,42.8 µM,56,71.9 µM,50.5 µM,35 µM
CCN1C(=O)N(CC)C2C1NN=c1s/c(=C3\C(=O)Nc4ccccc43)c(=O)n12 (configuration not stated),> 100 µM,55.5 µM,> 100 µM,25.8 µM,> 43.6 µM,32.5 µM,32.3 µM,21 µM,> 100 µM,45.1 µM,2.31,0.544 µM,0.409 µM,0.734 µM,0.373 µM,0.598 µM,1.06,0.556 µM,1.09 µM,10.6 µM
CCC/C=C/C=C/C(=O)OC1/C(=C/C(=O)OC)CC2CC(C(C)O)OC(=O)CC(O)CC3CC(OC(C)=O)C(C)(C)C(O)(CC4C/C(=C/C(=O)OC)CC(/C=C/C(C)(C)C1(O)O2)O4)O3 (configuration not stated),> 12.5 µM,> 10.9 µM and 11 µM and > 12.5 µM,> 10.9 µM and 4.91 µM and > 12.5 µM,11 µM and > 12.5 µM,> 12.5 µM,10.9 µM and 11 µM and > 12.5 µM,11 µM and > 12.5 µM,> 10.9 µM and 9.3 µM and > 12.5 µM,> 10.9 µM and 5.23 µM and > 12.5 µM,9.13 µM and 11 µM and > 12.5 µM,> 11,> 10.9 µM and 9.74 µM,> 10.9 µM and 2.99 µM and > 12.5 µM,10.9 µM and > 12.5 µM,> 11 µM,7.79 µM and 5.61 µM and 4.84 µM,> 12.5,> 10.9 µM and 7.21 µM and > 12.5 µM,> 10.9 µM and 2.48 µM and > 12.5 µM,6.18 µM and > 12.5 µM
Cc1cc(NC(=O)NCCOc2ccc(N3C(N)=NC(N)=NC3(C)C)cc2Cl)ccc1S(=O)(=O)F,> 100 µM,> 100 µM,> 100 µM,> 73.2 µM,17.7 µM,22.2 µM,> 76.8 µM,> 72.9 µM,> 100 µM,99.5 µM,1.44,8.57 µM,0.661 µM,8.36 µM,2.54 µM,5.07 µM,6.31,0.716 µM,> 100 µM,1.64 µM
Cc1cccc(CNc2c3ccccc3nc3ccccc23)c1,6.81 µM,6.02 µM,5.63 µM,16.1 µM,4.67 µM,4.57 µM,6.32 µM,5.54 µM,2.62 µM,11.8 µM,1.92,1.99 µM,1.74 µM,3.14 µM,1.53 µM,1.22 µM,2.34,1.96 µM,1.19 µM,3.06 µM
O=C1c2ccccc2C(=O)c2c1ccc1conc21,6.93 µM,14.9 µM,4.36 µM,9.11 µM,3.44 µM,3.04 µM,3.68 µM,3.14 µM,9.53 µM,6.8 µM,,,,,,,,,,
O=C1OC(c2ccc([N+](=O)[O-])cc2)=N/C1=C\c1ccc(Cl)cc1,> 100 µM,> 100 µM,> 100 µM,> 100 µM,> 100 µM,> 100 µM,> 100 µM,> 100 µM,,> 100 µM,,,,,,,,,,
COc1ccc(C2=C(c3ccc(OC)cc3)C(=O)OC2)cc1,> 100 µM,31.4 µM,> 42.5 µM,24.6 µM,1.85 µM,51.9 µM,> 100 µM,3.46 µM,> 43.5 µM,27.6 µM,20.2,3.2 µM,0.361 µM,2.25 µM,0.342 µM,7.45 µM,11.7,0.421 µM,3.18 µM,1.52 µM
CC(=O)c1cc2c(Br)cccc2oc1=O,> 100 µM,> 100 µM,> 100 µM,> 100 µM,> 100 µM,> 100 µM,> 100 µM,> 100 µM,,> 100 µM,,,,,,,,,,
Nc1c(C(=O)c2cccc(-c3cccnc3)c2)cnn1-c1ccc(F)cc1,> 25 µM,> 25 µM,> 25 µM,> 25 µM,24.7 µM,> 25 µM,> 25 µM,> 25 µM,> 25 µM,> 25 µM,> 25,> 16.1 µM,> 25 µM,> 17.3 µM,6.12 µM,> 8.11 µM,> 13.2,> 25 µM,> 25 µM,> 20.9 µM
O=S(=O)(F)Cc1ccccc1,> 100 µM,> 100 µM,> 100 µM,> 100 µM,> 100 µM,> 100 µM,> 100 µM,> 100 µM,> 100 µM,> 100 µM,,,,,,,,,,
NC(CSC(c1ccccc1)(c1ccccc1)c1ccccc1)C(=O)O (configuration not stated),89.4 µM and > 100 µM,90.1 µM and > 100 µM,107 µM and > 100 µM,63 µM and > 100 µM,2.2 µM and 7.13 µM and 4.28 µM,,57.8 µM and > 100 µM,16.9 µM and 32.4 µM and 43.4 µM,107 µM and > 100 µM,63.3 µM and 85.7 µM,4.28,22.1 µM,1.64 µM and 0.968 µM,19.3 µM and 4.5 µM,0.524 µM and 0.413 µM,2.17 µM and 10.1 µM,4.88,1.11 µM and 0.485 µM,9.89 µM,4.35 µM and 1.71 µM
CN(C)S(=O)(=O)c1cccc(C(=O)Nc2nc(-c3ccc(F)c(F)c3)cs2)c1,> 100 µM,98.3 µM,> 100 µM,> 100 µM,> 100 µM,> 74.3 µM,> 27.4 µM,> 74 µM,> 100 µM,> 100 µM,98.4,9.32 µM,47.9 µM,12.7 µM,5.71 µM,9.41 µM,3.88,11.5 µM,9.09 µM,13.9 µM
O=CNC(Cc1cnc[nH]1)C(=O)O (configuration not stated),> 100 µM,> 100 µM,> 100 µM,> 100 µM,> 100 µM,> 100 µM,> 100 µM,> 100 µM,> 100 µM,> 100 µM,,,,,,,,,,
O=C(O)c1cccc([As]=[As]c2cccc(C(=O)O)c2)c1 (configuration not stated),53.8 µM,> 100 µM,> 100 µM,> 100 µM,35.7 µM,37.4 µM,> 100 µM,35.5 µM,> 100 µM,72.7 µM,,,,,,,,,,
CC(C)(C)OC(=O)N(CCCCN(CCCn1c2c(c3ccccc3c1=O)C(=O)c1ccccc1-2)C(=O)OC(C)(C)C)CCCn1c2c(c3ccccc3c1=O)C(=O)c1ccccc1-2,,> 100 µM,> 100 µM,73.8 µM,> 100 µM,> 100 µM,> 100 µM,> 100 µM,> 100 µM,> 100 µM,,99.2 µM,32.3 µM,11 µM,26.2 µM,97 µM,> 100,27.2 µM,28.4 µM,58.5 µM
CN[C@@H](C)C(=O)N[C@H](C(=O)N1CCC[C@H]1c1nc(C(=O)c2ccc(F)cc2)cs1)C1CCCCC1,> 78.9 µM,> 100 µM,> 77.6 µM,> 65 µM,16.5 µM,8.98 µM,26.7 µM,33.3 µM,> 94.3 µM,> 100 µM,27,31.2 µM,27.4 µM,20 µM,3.45 µM,2.8 µM,11.7,15.6 µM,36.1 µM,46.9 µM
O=[N+]([O-])c1ccccc1/C=N\NC(=S)N/N=C/c1ccccc1[N+](=O)[O-],> 100 µM,> 100 µM,> 100 µM,> 100 µM,21.7 µM,> 100 µM,> 100 µM,> 100 µM,87.3 µM,> 100 µM,51,75.4 µM,4.29 µM,5.57 µM,2.15 µM,26.2 µM,39.6,4.9 µM,5.66 µM,5.73 µM
O=C(c1ccc(Cl)cc1Cl)N1CCN(C(=O)c2ccc(Cl)cc2Cl)C1=S,60.4 µM,60.1 µM,98.2 µM,66.5 µM,38.1 µM,28.5 µM,54.2 µM,35.3 µM,,56.1 µM,21.6,40.9 µM,28.2 µM,23.1 µM,18.2 µM,7.83 µM,21.1,17.8 µM,,24.5 µM
C=C1C(=O)OC2CC1C(OC(=O)/C=C/c1ccccc1)C/C(C)=C/CC/C(C)=C/CCC2(C)O (configuration not stated),3.19 µM,3.57 µM,,3.23 µM,1.63 µM,4.03 µM,2.8 µM,4.28 µM,3 µM,3.81 µM,,,,,,,,,,
